Results as given in patent US20250082931A1, “Treating Gastric Cancer Using TTFields Combined with XELOX, FOLFOX or the Individual Constituents Thereof” (Novocure GmbH, priority 2019, published 2025).

Experiments:
KATO III cells [1] = assay: Cytotoxic effect by cell count after 72 h, with and without TTFields
AGS cells [2] = assay: Clonogenic effect (colonies count); assay type: cell-based; conditions: for colonies count: 72 h
Method: After 72 h of treatment the media and the cells were collected, and cytotoxicity was determined by cell counts. […] For the testing of the clonogenic effect, cells were seeded for colonies.
(§1) After 6-14 days the colonies were fixed, stained and counted to determine clonogenic effect. The overall effect was calculated by multiplying the cytotoxic effect and the clonogenic effect.
Clonogenic effect: The colonies from each well were counted using ImageJ software. Average and standard deviation of colony number of at least 5 wells from each treatment were calculated in excel software. The averages from these repeats was calculated to averages and standard errors and is presented as percent from control (no drug treatment) in XY graph of points with error bars using GraphPed software. Significant was determine by 2-way ANOVA followed Multiple comparison using GraphPed software.

KATO III cells [3] = assay: Apoptosis analysis by Annexin V / 7AAD staining; assay type: cell-based; conditions: for AnnV+ 7AAD+ cell fraction / AnnV+ 7AAD− cell fraction / AnnV− 7AAD+ cell fraction / AnnV− 7AAD− cell fraction: 72 h
Method: After 72 h of treatment the media and the cells were collected, and cytotoxicity was determined by cell counts. Cells (including cells from the media) were stained for Annexin V and 7AAD for apoptosis analysis. For the testing of the clonogenic effect, cells were seeded for colonies.
Cells were seeded on inovitro dishes and petri dishes 24 h before starting the experiments. Media containing the indicated concentration of each chemotherapy component alone or FOLFOX and control media was added to the cells and the dishes were connected to TTFields (as in SOP-BI-009) or grown in 37° C., 5% CO2 for 72 h. Each treatment included 8 repeats (8 dishes). The media was replaced every 24 h. At the end of the experiment the cells were collected, and cytotoxicity was determined by cell counts, small number of cells were seeded for colonies and the cells (including cells from the media) were stained for Annexin V and 7AAD for apoptosis analysis.
Apoptotic effect: Average of cell fraction of each marker staining (Annexin V and 7AAD) of at least 5 dishes from each treatment was calculated in Excel software. The averages from these repeats was calculated to averages and is presented in stacked bar graph using GraphPed software.

AGS cells [4] = assay: Overall effect (cytotoxic effect x clonogenic effect); assay type: cell-based; conditions: for overall effect (colonies count multiplying the cytotoxic effect): 72 h
Method: as §1
Overall effect: Each colony number was multiply in the percent of cytotoxic effect of its dish and averages and standard deviations of each treatment were calculated in Excel software. […] Significant was determine by 2-way ANOVA followed Multiple comparison using GraphPed software.

[5] = FOLFOX experiment, 1.5 uM, + TTFields 150 kHz 1.6 V/cm
[6] = FOLFOX experiment, 1.5 uM, no TTFields
[7] = 0.5 uM, + TTFields 150 kHz 1.0 V/cm
[8] = 1.5 uM, + TTFields 150 kHz 1.0 V/cm
[9] = 4.5 uM, + TTFields 150 kHz 1.0 V/cm
[10] = 13.5 uM, + TTFields 150 kHz 1.0 V/cm
[11] = 40 uM, + TTFields 150 kHz 1.0 V/cm
[12] = FOLFOX experiment, 0.5 uM, + TTFields 150 kHz 1.0 V/cm
[13] = FOLFOX experiment, 0.5 uM, no TTFields
[14] = 1.5 nM, + TTFields 150 kHz 1.6 V/cm
[15] = 4.5 nM, + TTFields 150 kHz 1.6 V/cm
[16] = 13.5 nM, + TTFields 150 kHz 1.6 V/cm
[17] = 40 nM, + TTFields 150 kHz 1.6 V/cm

## O=c1[nH]cc(F)c(=O)[nH]1 [5-FU, 5-fluorouracil]
KATO III cells [1]; 4.5 uM, + TTFields 150 kHz 1.6 V/cm
  cell count: 42 % from control
KATO III cells [1]; 4.5 uM, no TTFields
  cell count: 56 % from control
KATO III cells [1]; 13.5 uM, + TTFields 150 kHz 1.6 V/cm
  cell count: 34 % from control
KATO III cells [1]; 13.5 uM, no TTFields
  cell count: 47 % from control
KATO III cells [1]; 40 uM, + TTFields 150 kHz 1.6 V/cm
  cell count: 32 % from control
KATO III cells [1]; 40 uM, no TTFields
  cell count: 34 % from control
KATO III cells [1]; [5]
  cell count: 50 % from control
KATO III cells [1]; [6]
  cell count: 73 % from control
AGS cells [2]; [7]
  colonies count: 51 % from control
AGS cells [2]; 0.5 uM, no TTFields
  colonies count: 95 % from control
AGS cells [2]; [8]
  colonies count: 59 % from control
AGS cells [2]; 1.5 uM, no TTFields
  colonies count: 90 % from control
AGS cells [2]; [9]
  colonies count: 35 % from control
AGS cells [2]; 4.5 uM, no TTFields
  colonies count: 74 % from control
AGS cells [2]; [10]
  colonies count: 11 % from control
AGS cells [2]; 13.5 uM, no TTFields
  colonies count: 9 % from control
AGS cells [2]; [11]
  colonies count: 0 % from control
AGS cells [2]; 40 uM, no TTFields
  colonies count: 0 % from control
AGS cells [2]; [12]
  colonies count: 59 % from control
AGS cells [2]; [13]
  colonies count: 100 % from control
AGS cells [2]; Two-way ANOVA P<0.001
  colonies number (clonogenic effect and overall effect), drug + TTFields compared to drug alone: significant reduction in colonies number
KATO III cells [3]
  elevation in percent of cells that undergo apoptosis, drug + TTFields compared to drug alone: higher
KATO III cells [3]; [14]
  AnnV+ 7AAD+ cell fraction: 19.12%
  AnnV+ 7AAD− cell fraction: 17.49%
  AnnV− 7AAD+ cell fraction: 2.24%
  AnnV− 7AAD− cell fraction: 61.16%
KATO III cells [3]; 1.5 nM, no TTFields
  AnnV+ 7AAD+ cell fraction: 11.98%
  AnnV+ 7AAD− cell fraction: 11.44%
  AnnV− 7AAD+ cell fraction: 1.95%
  AnnV− 7AAD− cell fraction: 74.64%
KATO III cells [3]; [15]
  AnnV+ 7AAD+ cell fraction: 20.44%
  AnnV+ 7AAD− cell fraction: 13.34%
  AnnV− 7AAD+ cell fraction: 4.25%
  AnnV− 7AAD− cell fraction: 61.98%
KATO III cells [3]; 4.5 nM, no TTFields
  AnnV+ 7AAD+ cell fraction: 11.92%
  AnnV+ 7AAD− cell fraction: 11.00%
  AnnV− 7AAD+ cell fraction: 3.59%
  AnnV− 7AAD− cell fraction: 73.50%
KATO III cells [3]; [16]
  AnnV+ 7AAD+ cell fraction: 17.18%
  AnnV+ 7AAD− cell fraction: 16.21%
  AnnV− 7AAD+ cell fraction: 2.01%
  AnnV− 7AAD− cell fraction: 64.61%
KATO III cells [3]; 13.5 nM, no TTFields
  AnnV+ 7AAD+ cell fraction: 11.72%
  AnnV+ 7AAD− cell fraction: 12.44%
  AnnV− 7AAD+ cell fraction: 2.22%
  AnnV− 7AAD− cell fraction: 73.64%
KATO III cells [3]; [17]
  AnnV+ 7AAD+ cell fraction: 21.25%
  AnnV+ 7AAD− cell fraction: 11.40%
  AnnV− 7AAD+ cell fraction: 3.58%
  AnnV− 7AAD− cell fraction: 63.76%
KATO III cells [3]; 40 nM, no TTFields
  AnnV+ 7AAD+ cell fraction: 12.48%
  AnnV+ 7AAD− cell fraction: 10.55%
  AnnV− 7AAD+ cell fraction: 3.42%
  AnnV− 7AAD− cell fraction: 73.55%
KATO III cells [3]; [5]
  AnnV+ 7AAD+ cell fraction: 32.59%
  AnnV+ 7AAD− cell fraction: 16.09%
  AnnV− 7AAD+ cell fraction: 1.39%
  AnnV− 7AAD− cell fraction: 49.94%
KATO III cells [3]; [6]
  AnnV+ 7AAD+ cell fraction: 22.22%
  AnnV+ 7AAD− cell fraction: 11.36%
  AnnV− 7AAD+ cell fraction: 0.96%
  AnnV− 7AAD− cell fraction: 65.47%
AGS cells [4]
  interaction with TTFields based on the overall effect: synergistic
AGS cells [4]; [7]
  overall effect (colonies count multiplying the cytotoxic effect): 36 % from control
AGS cells [4]; 0.5 uM, no TTFields
  overall effect (colonies count multiplying the cytotoxic effect): 97 % from control
AGS cells [4]; [8]
  overall effect (colonies count multiplying the cytotoxic effect): 30 % from control
AGS cells [4]; 1.5 uM, no TTFields
  overall effect (colonies count multiplying the cytotoxic effect): 81 % from control
AGS cells [4]; [9]
  overall effect (colonies count multiplying the cytotoxic effect): 11 % from control
AGS cells [4]; 4.5 uM, no TTFields
  overall effect (colonies count multiplying the cytotoxic effect): 50 % from control
AGS cells [4]; [10]
  overall effect (colonies count multiplying the cytotoxic effect): 2 % from control
AGS cells [4]; 13.5 uM, no TTFields
  overall effect (colonies count multiplying the cytotoxic effect): 2 % from control
AGS cells [4]; [11]
  overall effect (colonies count multiplying the cytotoxic effect): 0 % from control
AGS cells [4]; 40 uM, no TTFields
  overall effect (colonies count multiplying the cytotoxic effect): 0 % from control
AGS cells [4]; [12]
  overall effect (colonies count multiplying the cytotoxic effect): 36 % from control
AGS cells [4]; [13]
  overall effect (colonies count multiplying the cytotoxic effect): 87 % from control
